From patent US20090203523A1, “Fungicidal Mixtures Made From 1-Methylpyrazol-4-Ylcarboxanilides” (BASF AKTIENGESSELLSCHFT, priority 2005, published 2009) come the findings set out here.

One series concerns Pyrenophora teres. As to the kind of experiment: Activity against net blotch of barley, 1 day protective application. The class given is in vivo. Conditions: barley seedlings, efficacy in % of untreated control, evaluated after 6 days.
The test system of series [1] is Puccinia recondita. As to the kind of experiment: Curative activity against brown rust of wheat. The conditions noted are these: wheat seedlings, efficacy in % of untreated control, 7 days. The class given is in vivo.
For a further series, the system named is Botrytis cinerea. The series is described as follows: Activity against gray mold on bell pepper leaves, 1 day protective use. Type of series: in vivo. Conditions: 16 mg/l; bell pepper seedlings, efficacy in % of untreated control, evaluated after 5 days.
The subject of the next series is Phytophthora infestans. The class given is cell-based. Conditions: 0.25 mg/l; microtiter plate, absorption at 405 nm on day 7.
The subject of series [2] is Puccinia recondita. The series is described as follows: Protective activity against brown rust of wheat. The class given is in vivo. The conditions noted are these: wheat seedlings, efficacy in % of untreated control.

As for `Cn1nc(Cl)c(C(=O)Nc2ccccc2-c2ccc(C(F)(F)F)cc2)c1C(F)F` [No. I.8, N-(4′-trifluoromethylbiphenyl-2-yl)-1-methyl-3-chlorodifluoromethyl-1H-pyrazole-4-carboxamide], the melting point (as a rule, the temperature, or range, at which the solid turns liquid) lay in the range of 193 to 196 °C.
As to `N#Cc1c(Cl)c(Cl)c(Cl)c(C#N)c1Cl` [chlorthalonil, 2,4,5,6-tetrachloroisophthalonitrile, reference compound], in the series on Pyrenophora teres (16 mg/l), the Observed activity is on record as 0%. The “Observed activity (efficacy, % of untreated control)” value with Puccinia recondita [1] (16 mg/l) is 0%.
On to `COC(=O)N(OC)c1ccccc1COc1ccn(-c2ccc(Cl)cc2)n1` [pyraclostrobin, methyl N-{2-[1-(4-chlorophenyl)-1H-pyrazol-3-yloxymethyl]phenyl}(N-methoxy)carbamate, reference compound], for which the “Observed efficacy (% of untreated control)” value with Botrytis cinerea came out at 10%.
With `Fc1ccc([C@]2(Cn3cncn3)O[C@H]2c2ccccc2Cl)cc1` (racemic) [epoxiconazole, (2RS,3SR)-1-[3-(2-chlorophenyl)-2,3-epoxy-2-(4-fluorophenyl)propyl]-1H-1,2,4-triazole, reference compound], the “Observed activity (efficacy, % of untreated control)” value in the series on Puccinia recondita [1] (0.063 mg/l) is on record as 0%.
With `CC1(C)CC/C(=C\c2ccc(Cl)cc2)C1(O)Cn1cncn1` (stereo not shown) [triticonazole, (5E)-5-[(4-chlorophenyl)methylene]-2,2-dimethyl-1-(1H-1,2,4-triazol-1-ylmethyl)cyclopentanol, reference compound], the “Observed activity (% infection)” value with Phytophthora infestans worked out at 0%.
Turning to `Cn1cc(C(=O)Nc2ccccc2-c2ccc(C(F)(F)F)cc2)c(C(F)F)n1` [No. I.2, N-(4′-trifluoromethylbiphenyl-2-yl)-3-difluoromethyl-1-methyl-1H-pyrazole-4-carboxamide], the melting point lay in the range of 164 to 165 °C. For the same compound, the “Observed activity (efficacy, % of untreated control)” value in the series with Puccinia recondita [1] (0.25 mg/l) is 0%. In addition, in the series on Puccinia recondita [1] (1 mg/l), the “Observed activity (efficacy, % of untreated control)” value turned out to be 56%. The “Observed efficacy (% of untreated control)” value with Botrytis cinerea is reported as 70%. The “Observed efficacy (% of untreated control)” value in the series on Puccinia recondita [2] (16 mg/l) is on record as 0%.
With `Cn1nc(C(F)(F)F)c(C(=O)Nc2ccccc2-c2ccc(C(F)(F)F)cc2)c1F` [No. I.3, N-(4′-trifluoromethylbiphenyl-2-yl)-1-methyl-3-trifluoromethyl-5-fluoro-1H-pyrazole-4-carboxamide], the melting point lay in the range of 170 to 173 °C.
Regarding `COc1cc(C)c(C(=O)c2c(OC)ccc(Br)c2C)c(OC)c1OC` [metrafenone, 3′-bromo-2,3,4,6′-tetramethoxy-2′,6-dimethylbenzophenone], in the series on Pyrenophora teres (4 mg/l), the Observed activity is given as 0%. For the same compound, the “Observed efficacy (% of untreated control)” value with Puccinia recondita [2] (63 mg/l) was determined as 0%.
Regarding `COc1ccc(C(=CC(=O)N2CCOCC2)c2ccc(Cl)cc2)cc1OC` [dimethomorph, 3-(4-chlorophenyl)-3-(3,4-dimethoxyphenyl)-1-morpholin-4-yl-propenone], the Observed activity with Pyrenophora teres (16 mg/l) is on record as 0%. Further, the “Observed efficacy (% of untreated control)” value with Puccinia recondita [2] (63 mg/l) is on record as 0%.
Consider `Cn1cc(C(=O)Nc2ccccc2-c2ccc(C(F)(F)F)cc2)c(CF)n1` [No. I.7, N-(4′-trifluoromethylbiphenyl-2-yl)-1-methyl-3-fluoromethyl-1H-pyrazole-4-carboxamide], for which the melting point was in the range of 156 to 158 °C.
With “zinc ammoniate ethylenebis(dithiocarbamate) [metiram]”, the Observed activity in the series with Pyrenophora teres (16 mg/l) is given as 0%.
The compound `Cc1nn(C)c(Cl)c1C(=O)Nc1ccccc1-c1ccc(C(F)(F)F)cc1` [No. I.5, N-(4′-trifluoromethylbiphenyl-2-yl)-1,3-dimethyl-5-chloro-1H-pyrazole-4-carboxamide] had a melting point of 173 to 175 °C.
In turn, `Cn1cc(C(=O)Nc2ccccc2-c2ccc(C(F)(F)F)cc2)c(C(F)(F)F)n1` [No. I.1, N-(4′-trifluoromethylbiphenyl-2-yl)-1-methyl-3-trifluoromethyl-1H-pyrazole-4-carboxamide] registered a melting point of 175 to 177 °C. In the series on Pyrenophora teres (0.25 mg/l), this compound gave an Observed activity of 11%. Besides, in the series on Pyrenophora teres (1 mg/l), the Observed activity is on record as 56%. The “Observed activity (% infection)” value in the series with Phytophthora infestans was 3%.
`CC1CCN(c2c(-c3c(F)cc(F)cc3F)c(Cl)nc3ncnn23)CC1` [5-chloro-7-(4-methylpiperidin-1-yl)-6-(2,4,6-trifluorophenyl)-[1,2,4]triazolo[1,5-a]pyrimidine]: the Observed activity in the series on Pyrenophora teres (1 mg/l) came out at 44%.
The compound `Cc1nn(C)cc1C(=O)Nc1ccccc1-c1ccc(C(F)(F)F)cc1` [No. I.6, N-(4′-trifluoromethylbiphenyl-2-yl)-1,3-dimethyl-1H-pyrazole-4-carboxamide] displayed a melting point of 174 to 177 °C.
